Data taken from ChEMBL document CHEMBL4808217, “Design, Synthesis, and Characterization of 4-Aminoquinazolines as Potent Inhibitors of the G Protein-Coupled Receptor Kinase 6 (GRK6) for the Treatment of Multiple Myeloma” (J Med Chem, 2021).

How the values were obtained:
Rhodopsin kinase GRK7 = biological target: T1, Rhodopsin kinase GRK7 (Homo sapiens, UniProt Q8WTQ7); test: Inhibition of recombinant full length human GRK7 using casein as substrate incubated for 40 mins in presence of [gamma-33ATP] by scintillation counting based radiometry assay
T1 sequence (Q8WTQ7 whole entry): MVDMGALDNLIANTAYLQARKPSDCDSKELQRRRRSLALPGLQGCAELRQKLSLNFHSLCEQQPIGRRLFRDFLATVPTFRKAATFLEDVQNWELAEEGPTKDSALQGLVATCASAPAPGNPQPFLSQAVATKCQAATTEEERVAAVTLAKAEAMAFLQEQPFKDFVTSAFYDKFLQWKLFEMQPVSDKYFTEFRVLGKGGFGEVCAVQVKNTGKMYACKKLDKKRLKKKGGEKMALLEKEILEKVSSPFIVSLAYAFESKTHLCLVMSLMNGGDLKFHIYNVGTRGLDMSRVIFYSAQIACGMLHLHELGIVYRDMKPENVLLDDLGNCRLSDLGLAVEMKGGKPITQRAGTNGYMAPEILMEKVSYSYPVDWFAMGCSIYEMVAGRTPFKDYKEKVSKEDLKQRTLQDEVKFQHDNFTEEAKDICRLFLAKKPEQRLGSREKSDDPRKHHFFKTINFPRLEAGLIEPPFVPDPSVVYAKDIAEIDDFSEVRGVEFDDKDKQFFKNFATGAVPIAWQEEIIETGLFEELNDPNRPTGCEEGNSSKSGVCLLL

[1] = biological target: T2, G protein-coupled receptor kinase 3 (Homo sapiens, UniProt P35626); test: Inhibition of human GRK3 using casein as substrate in presence of [gamma33P]ATP by radiometric hotspot kinase assay
T2 sequence (P35626 whole entry): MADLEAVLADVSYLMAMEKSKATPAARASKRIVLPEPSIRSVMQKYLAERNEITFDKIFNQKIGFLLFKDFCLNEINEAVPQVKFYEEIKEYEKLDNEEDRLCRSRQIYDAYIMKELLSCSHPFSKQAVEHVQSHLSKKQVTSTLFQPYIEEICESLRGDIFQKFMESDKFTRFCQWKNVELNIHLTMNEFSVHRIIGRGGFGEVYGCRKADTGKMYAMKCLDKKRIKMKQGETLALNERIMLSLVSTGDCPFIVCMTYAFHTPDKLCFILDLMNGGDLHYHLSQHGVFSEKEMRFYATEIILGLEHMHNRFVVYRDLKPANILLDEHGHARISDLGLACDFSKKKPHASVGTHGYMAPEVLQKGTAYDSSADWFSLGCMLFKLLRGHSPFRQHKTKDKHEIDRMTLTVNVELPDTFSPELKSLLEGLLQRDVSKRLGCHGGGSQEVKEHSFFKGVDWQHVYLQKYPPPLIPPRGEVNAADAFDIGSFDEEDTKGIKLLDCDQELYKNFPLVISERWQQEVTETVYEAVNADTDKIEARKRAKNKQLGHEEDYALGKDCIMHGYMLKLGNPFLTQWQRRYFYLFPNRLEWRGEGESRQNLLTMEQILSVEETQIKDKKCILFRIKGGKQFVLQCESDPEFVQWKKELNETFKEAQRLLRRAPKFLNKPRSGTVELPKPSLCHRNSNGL

[2] = biological target: T3, Beta-adrenergic receptor kinase 1 (Homo sapiens, UniProt P25098); test: Inhibition of human GRK2 using casein as substrate in presence of [gamma33P]ATP by radiometric hotspot kinase assay
T3 sequence (P25098 whole entry): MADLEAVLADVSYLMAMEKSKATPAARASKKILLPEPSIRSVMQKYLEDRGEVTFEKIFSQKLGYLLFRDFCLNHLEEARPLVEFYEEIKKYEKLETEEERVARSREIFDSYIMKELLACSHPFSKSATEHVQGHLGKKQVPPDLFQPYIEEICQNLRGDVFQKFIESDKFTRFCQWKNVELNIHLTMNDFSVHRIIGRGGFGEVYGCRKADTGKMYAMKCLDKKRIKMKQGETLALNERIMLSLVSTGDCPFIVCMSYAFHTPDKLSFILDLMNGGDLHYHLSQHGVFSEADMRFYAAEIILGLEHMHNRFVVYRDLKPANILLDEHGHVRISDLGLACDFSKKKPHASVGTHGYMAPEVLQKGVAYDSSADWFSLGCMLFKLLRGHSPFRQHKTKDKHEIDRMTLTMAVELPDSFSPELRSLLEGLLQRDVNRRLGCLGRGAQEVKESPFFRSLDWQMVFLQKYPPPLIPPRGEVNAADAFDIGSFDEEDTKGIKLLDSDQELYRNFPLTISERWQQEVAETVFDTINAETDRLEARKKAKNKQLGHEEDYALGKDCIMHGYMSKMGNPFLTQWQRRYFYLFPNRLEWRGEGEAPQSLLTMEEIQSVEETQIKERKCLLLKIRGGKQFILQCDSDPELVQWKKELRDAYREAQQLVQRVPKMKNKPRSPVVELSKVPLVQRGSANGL

[3] = biological target: Serine/threonine-protein kinase Chk2 (Homo sapiens, UniProt O96017); test: Inhibition of recombinant human CHK2 (5 to end residues) using KKKVSRSGLYRSPSMPENLNRPR as substrate incubated for 40 mins in presence of [gamma-33ATP] by scintillation counting based radiometry assay
[4] = biological target: G protein-coupled receptor kinase 6 (Homo sapiens, UniProt P43250); test: Binding affinity to FLAG-tagged GRK6 in human KMS11 cells incubated for […] by ITDR assay; format: cell-based, KMS-11
Aurora kinase A = biological target: T4, Aurora kinase A (Homo sapiens, UniProt O14965); test: Inhibition of recombinant full length human Aurora A using LRRASLG as substrate incubated for 40 mins in presence of [gamma-33ATP] by radiometric scintillation counting method
T4 sequence (O14965 whole entry): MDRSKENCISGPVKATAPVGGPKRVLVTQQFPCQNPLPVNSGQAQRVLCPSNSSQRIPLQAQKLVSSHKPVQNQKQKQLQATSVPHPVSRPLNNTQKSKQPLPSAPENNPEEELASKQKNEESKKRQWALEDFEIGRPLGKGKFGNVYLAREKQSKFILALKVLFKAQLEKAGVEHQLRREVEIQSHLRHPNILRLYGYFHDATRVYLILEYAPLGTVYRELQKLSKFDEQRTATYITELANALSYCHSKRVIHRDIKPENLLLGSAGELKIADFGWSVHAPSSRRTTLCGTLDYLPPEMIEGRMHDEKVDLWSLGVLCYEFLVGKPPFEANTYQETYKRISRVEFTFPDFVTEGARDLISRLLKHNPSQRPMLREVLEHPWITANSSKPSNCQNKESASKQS

[5] = biological target: Death-associated protein kinase 3 (Homo sapiens, UniProt O43293); test: Inhibition of recombinant human ZIPK (1 to 290 residues) using KKLNRTLSFAEPG substrate incubated for 40 mins in presence of [gamma33P]ATP by scintillation counting based radiometry assay
Chain of Death-associated protein kinase 3 (O43293 whole entry, the tested form may be a part): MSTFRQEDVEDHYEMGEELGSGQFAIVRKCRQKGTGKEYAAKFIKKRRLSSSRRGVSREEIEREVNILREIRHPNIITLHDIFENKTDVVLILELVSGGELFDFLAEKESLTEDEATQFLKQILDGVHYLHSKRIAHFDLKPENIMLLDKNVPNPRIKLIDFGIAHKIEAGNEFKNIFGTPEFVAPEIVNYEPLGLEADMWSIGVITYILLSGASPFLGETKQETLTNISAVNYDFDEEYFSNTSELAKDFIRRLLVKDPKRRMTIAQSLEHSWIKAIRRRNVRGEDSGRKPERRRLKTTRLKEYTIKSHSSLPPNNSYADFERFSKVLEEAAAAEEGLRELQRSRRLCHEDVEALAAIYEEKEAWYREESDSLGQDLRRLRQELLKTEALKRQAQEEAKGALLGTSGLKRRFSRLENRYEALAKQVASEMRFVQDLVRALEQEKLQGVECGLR

Chain of G protein-coupled receptor kinase 6 (P43250 whole entry): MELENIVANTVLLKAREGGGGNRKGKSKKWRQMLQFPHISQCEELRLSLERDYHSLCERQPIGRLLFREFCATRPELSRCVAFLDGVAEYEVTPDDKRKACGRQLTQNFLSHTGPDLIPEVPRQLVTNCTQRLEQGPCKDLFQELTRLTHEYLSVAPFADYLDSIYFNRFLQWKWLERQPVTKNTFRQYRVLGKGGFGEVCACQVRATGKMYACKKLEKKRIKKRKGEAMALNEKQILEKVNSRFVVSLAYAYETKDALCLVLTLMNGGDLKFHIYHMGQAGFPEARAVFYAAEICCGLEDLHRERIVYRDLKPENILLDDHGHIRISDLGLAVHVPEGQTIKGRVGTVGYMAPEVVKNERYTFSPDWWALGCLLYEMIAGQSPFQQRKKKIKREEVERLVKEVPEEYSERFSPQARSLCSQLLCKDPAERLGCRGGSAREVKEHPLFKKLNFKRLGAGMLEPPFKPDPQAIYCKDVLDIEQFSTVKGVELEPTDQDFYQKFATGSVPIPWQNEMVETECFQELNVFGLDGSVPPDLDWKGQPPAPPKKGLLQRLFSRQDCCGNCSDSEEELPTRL
Chain of Serine/threonine-protein kinase Chk2 (O96017 whole entry): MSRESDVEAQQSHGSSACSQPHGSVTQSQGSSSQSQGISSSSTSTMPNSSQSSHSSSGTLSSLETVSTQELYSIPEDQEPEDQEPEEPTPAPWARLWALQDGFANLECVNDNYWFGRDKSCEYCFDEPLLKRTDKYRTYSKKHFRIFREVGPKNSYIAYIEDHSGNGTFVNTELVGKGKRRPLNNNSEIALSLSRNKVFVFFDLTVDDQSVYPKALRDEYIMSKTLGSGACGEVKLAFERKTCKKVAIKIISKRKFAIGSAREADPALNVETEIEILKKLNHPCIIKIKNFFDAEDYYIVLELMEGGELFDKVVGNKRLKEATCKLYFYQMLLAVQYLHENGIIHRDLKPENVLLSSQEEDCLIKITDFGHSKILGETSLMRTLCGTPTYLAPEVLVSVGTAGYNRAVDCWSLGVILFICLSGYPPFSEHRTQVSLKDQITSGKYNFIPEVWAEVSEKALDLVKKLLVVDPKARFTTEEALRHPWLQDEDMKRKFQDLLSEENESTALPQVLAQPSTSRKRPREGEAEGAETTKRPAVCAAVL

IC50 (Rhodopsin kinase GRK7): 6.4 nM | IC50 [1]: > 10000 nM | IC50 [2]: > 10000 nM | IC50 [3]: 820 nM | IC50 [4]: 30 nM | IC50 (Aurora kinase A): 8900 nM
Structure (SMILES): CCc1cc(Nc2nc(NCc3ccc(Cl)cc3OC)nc3cccc(OC)c23)n[nH]1
IC50 [5]: 720 nM
